Seven compounds from paper PMC11124341, “4-Hydroxybenzoic Acid-Based Hydrazide–Hydrazones as Potent Growth Inhibition Agents of Laccase-Producing Phytopathogenic Fungi That Are Useful in the Protection of Oilseed Crops” (Molecules, 2024) can be followed below.

In one data set the test system is MCF-10A cells. Nature of the data set: Antiproliferative assay in vitro (SRB). Type of data set: cell-based, human. The note with it: Homo sapiens, MCF-10A; 72 h exposure, SRB method; read-out: Average IC50 ± SD, MCF-10A line. The method, then: Antiproliferative tests were performed on a normal human breast cell line, MCF-10A, and a mouse embryonic fibroblast: Balb/3T3. Both cell lines were obtained from the American Type Culture Collection (Rockville, MD, USA). The cell lines were maintained in the Institute of Immunology and Experimental Therapy, Wroclaw, Poland. MCF-10A cells were cultured in the F-12 nutrient mixture (Gibco, Scotland, UK), supplemented with 5% horse serum (Gibco, Scotland, UK), […] (Vibrio cholerae Pacini), 10 μg/mL of hydrocortisone and 20 ng/mL of human epidermal growth factor (all from Sigma-Aldrich, Chemie GmbH, Steinheim, Germany). Balb/3T3 cells were cultured in Dulbecco medium (Gibco, Darmstadt, Germany) supplemented with 10% fetal bovine serum (Thermo Fisher Scientific, Waltham, MA, USA) and 2 mM l-glutamine (Sigma-Aldrich, St. Louis, MO, USA). All culture media contained antibiotics: 100 U/mL penicillin (Sigma-Aldrich, St. Louis, MO, USA) and 100 µg/mL streptomycin (Polfa-Tarchomin, Warsaw, Poland). Both cell lines were cultured during the entire experiment in a humid atmosphere at 37 °C and 5% CO2. Amistar 250 SC (fungicide) with active compound azoxystrobin was provided by the Institute of Soil Science and Plant Cultivation, National Research Institute in Pulawy, Department of Weed Science and Tillage Systems in Wroclaw, Poland […].
Twenty-four hours prior to the applications of the tested compounds, MCF-10A and Balb/3T3 cells were plated in 96-well plates at a density of 10^4 cells per well and cultured at 37 °C in a humid atmosphere saturated with 5% CO2 for 24 h. Stock solutions of the compounds were prepared ex tempore for each test by dissolving in DMSO. The cells were also exposed to the reference drugs: cis-platin (Accord, London, UK) (10–0.01 µg/mL) and DMSO (Sigma-Aldrich) (at the concentrations corresponding to those in the tested agent dilutions). The solutions were then diluted in culture medium RPMI 1640 + Opti-MEM (1:1) (both from Gibco, Scotland, UK), supplemented with 2 mM l-glutamine, 5% fetal bovine serum (all from Sigma-Aldrich Chemie GmbH, Steinheim, Germany). An assay was performed after 72 h of exposure to the tested compounds 13, 17, 18, 19, 25, 27, 30, 4-hba, 4-hbah, and 3,4,5-hba (0.5, 5.0, 50, and to 500 µM) and azoxystrobin fungicide (0.05, 0.5, 5.0 and 50 µM). The antiproliferative effect in vitro was determined by the SRB method (sulforhodamine B colorimetric assay). The optical densities of the samples were measured on the Synergy H4 photometer (BioTek Instruments, Winooski, VT, USA) at 540 nm. The results were calculated as 50% inhibitory concentration (IC50), namely the dose of the tested compound inhibiting proliferation of the tested cells by 50% as compared to the untreated control cells, in the Prolab-3 system based on Cheburator 0.4 software using the two-point method. Each test was repeated 3–5 times.
Cytotoxicity was performed on two normal cell lines: MCF -10A and Balb/3T3, using as controls cis-platin in the concentrations of 0.03 32, 0.3 32, 3.32 and 33.2 µM and azoxystrobin fungicide in the […]
were tested in the concentrations of 0.5, 5.0, 50, and 500 µM. The relation of compound concentration […]
Further, a comparison of the influence of each tested concentration in the group of tested compounds on cell lines was illustrated in Figure S130 a (MCF-10A) and b (Balb/T3T).
Table S4. Cytotoxicity results for compounds 13, 17, 18, 19, 25, 27, and 30 investigated on normal mammalian lines: MCF -10A and B alb/3T3 using Azoxystrobin (fungicide) and cis-platin as reference compounds.
Cytotoxicity profile presented as proliferation inhibition, % (y -axis) in the function of compound concentration, […]
Structure MCF-10A Balb/3T3
Proliferation inhibition [%] […]
A general note: Sulforhodamine B stains cellular protein and so reports cell mass.

The subject of data set [1] is rapeseed (Brassica napus L. var. napus) seeds. Nature of the data set: Phytotest 1: phytotoxicity, seed germination and root growth. Type of data set: in vivo. The note with it: 50 µg/mL; versus water–ethanol 0.5% (v/v) control; <90% inhibition, 90–110% no effect, >110% stimulation. The text has this:
(§1) In the experiments with plants, two aspects were taken under consideration: (1) phytotoxicity, which determined the toxicity of the hydrazide–hydrazones on seed germination and root growth, and (2) study on the behavior of seeds in the presence of the tested hydrazide–hydrazones and pathogens producing laccase (B. cinerea and S. sclerotiorum). The non-coated seeds of Linum usitatissimum, Helianthus annuus, and Brassica napus var. napus were provided by the Institute of Soil Science and Plant Cultivation, National Research Institute in Pulawy, Department of Weed Science and Tillage Systems, and Institute of Technology and Life Sciences–National Research Institute Falenty (Poland). Both phytotests were performed based on direct-contact microbiotests following the protocol recommended by the manufacturer (PhytotestkitTM, MicroBio Tests, Mariakerke, Belgium) with the authors’ modifications.
(§2) The main phytotest equipment (Tigret, Warsaw, Poland) and general methods are described as follows. Test plates (21 × 15.5 × 0.8 cm) provide optimal moisture and enable observation of seed germination and data reading at the end of the test. A single plate is made of polyvinylchloride and composed of both a transparent bottom and a covering part that are stuck together by a set of press buttons. […] Such prepared wet support was covered with a black filter paper that soaked the solution and was applied for further testing.
(§3) In the assay of phytotoxicity (1), the seeds of three dicota plants were used, namely ten seeds of flax or rapeseed and six seeds of sunflower. The seeds were transferred directly on the filter surface by placing them along the line at approximately 1 cm from the ridge at equal distances. Then, the seeds on the filter surface were covered with a covering part and placed in a holder.
(§4) All test plates were put vertically in a special incubator to allow free germination and growth of roots at 25 °C through 5 days in the dark. The test was performed in triplicate for each test plant. The results were expressed as the germination index values (GI, Equation (2)) concerning the plant growth controls in water–ethanol solution for (1). […] The GI was calculated from the formula and categorized as an inhibition for GI values < 90%, as stimulation > 110%, and between 90 and 110% as non-toxic/no effect as proposed in the literature. (2) GI,%=Gs×Ls/Gc×Lc×100% where Gs is seed germination (%), Ls is root elongation (mm) for the test plate, and Gc and Lc are corresponding values for the control plates. Gc was calculated as the proportion of germinated seeds in the test in relation to the number of germinated seeds in the control. The control was the representative number of seeds that germinated on a medium with 0.5% (v/v) of ethanol.

The test system of data set [2] is flax (Linum usitatissimum L.) seeds. Described as above. The note with it: 50 µg/mL; versus water–ethanol 0.5% (v/v) control; <90% inhibition, 90–110% no effect, >110% stimulation. Type of data set: in vivo.
Excerpt: as §1, §2, §3, §4

The IC50 is the concentration needed to halve the response being measured. In general, melting point refers to the temperature, or range, at which the solid turns liquid.

In the case of `O=C(N/N=C/c1cc(O)ccc1O)c1ccc(O)cc1` [compound 13], the melting point is 304 °C (dec.). Besides, in the data set on MCF-10A cells, the IC50 turned out to be 213 ± 34.1 µM.

On to `COc1cc(/C=N/NC(=O)c2ccc(O)cc2)ccc1O` [compound 17], for which, in data set [1], the “Germination index (GI), rapeseed, test 1” value is 81%. In addition, the concentration for half-maximal inhibition (IC50) in the data set with MCF-10A cells was 275 ± 41.5 µM.

With `CC(C)(C)c1cccc(/C=N/NC(=O)c2ccc(O)cc2)c1O` [compound 18], the “Germination index (GI), flax, test 1” value in data set [2] is “stimulating”. For the same compound, the “Germination index (GI), rapeseed, test 1” value in data set [1] is 67%. The IC50 in the data set with MCF-10A cells was found to be 6.41 ± 2.05 µM.

`O=C(N/N=C/c1cccc(-c2ccccc2)c1O)c1ccc(O)cc1` [compound 19]: the “Germination index (GI), rapeseed, test 1” value in data set [1] is “stimulating”. Moreover, the IC50 in the data set with MCF-10A cells was 3.44 ± 0.83 µM.

`Cc1cc(/C=N/NC(=O)c2ccc(O)cc2)c(O)c(CO)c1` [compound 25]: the “Germination index (GI), flax, test 1” value in data set [2] is reported as “stimulated”. Moreover, the “Germination index (GI), rapeseed, test 1” value in data set [1] is “stimulated”. Besides, in the data set with MCF-10A cells, the IC50 is 27.5 ± 1.83 µM.

For the compound `CC(C)(C)c1cc(/C=N/NC(=O)c2ccc(O)cc2)c(O)c(C(C)(C)C)c1` [compound 27], the “Germination index (GI), rapeseed, test 1” value in data set [1] was found to be 83%. The IC50 with MCF-10A cells is 7.73 ± 1.08 µM.

With `Cc1cc(/C=N/NC(=O)c2ccc(O)cc2)c(O)c(C(C)(C)C)c1` [compound 30], the IC50 with MCF-10A cells was determined as 8.85 ± 5.47 µM.
